# Measured values as given in US11542259B2, “Compounds for the treatment of kinase-dependent disorders” (Exelixis, Inc., priority 2018, dated 2023).
# Key:
# Type in all cases: cell-based
# [1] = biological target: AXL (Homo sapiens (Human), UniProt P30530); test: AXL autophosphorylation ELISA in A-172 cells; details: cellular, Gas6 stimulated
# Method: A-172 glioblastoma cells (ATCC #CRL-1620) were seeded at 2.5×10^5 cells/well onto 24-well plates (Greiner #662165), in DMEM (Thermo Fisher #11995-040) containing 10% FBS (Thermo Fisher #26140-079), 1% MEM NEAA (Thermo Fisher #11140-050), 1% GlutaMax (Thermo Fisher #35050-061) and 1% Penicillin Streptomycin (Thermo Fisher #15140-122). A-172 cells were incubated at 37° C., 5% CO2 for 24 h and then starved for 24 h in serum-free medium. Test compounds were serially diluted to produce an 8-point dose curve in fresh serum-free medium to a final concentration of 0.3% DMSO (vehicle) and added to the cells and incubated for 1 h. Cells were then stimulated with 1 μg/mL recombinant human Gas6 (R&D Systems #885-GSB-500) for 15 min, washed with cold PBS and immediately lysed with 150 μL of cold 1× lysis buffer [20 mM Tris, 137 mM sodium chloride, 2 mM EDTA, 10% glycerol, 1% NP-40 alternative, 1 mM activated sodium orthovanadate, 1 mM PefaBloc SC (Sigma-Aldrich #11429868001), protease/phosphatase inhibitor tablet (Thermo Fisher #A32959)]. Lysates were collected and 100 μL/well added into the human phospho-AXL DuoSet IC ELISA (R&D Systems #DYC2228-2). Assay was performed according to manufacturer's instructions and sample phospho-AXL concentrations were extrapolated using human phospho-AXL control (R&D Systems #841645) as a standard. Positive control wells (100% activity) contained Gash-stimulated, DMSO-treated cell lysates. Negative control wells (0% activity) contained Gash-stimulated, reference inhibitor-treated cell lysates. IC50 values were calculated by nonlinear regression analysis using a 4-parameter logistic curve fit in ActivityBase XE (IDBS).
# [2] = biological target: Met (Homo sapiens (Human), UniProt P08581); test: Met autophosphorylation ELISA in PC-3 cells; details: cellular, HGF stimulated, read-out: c-Met IC50
# Met, sequence (P08581 25-1390): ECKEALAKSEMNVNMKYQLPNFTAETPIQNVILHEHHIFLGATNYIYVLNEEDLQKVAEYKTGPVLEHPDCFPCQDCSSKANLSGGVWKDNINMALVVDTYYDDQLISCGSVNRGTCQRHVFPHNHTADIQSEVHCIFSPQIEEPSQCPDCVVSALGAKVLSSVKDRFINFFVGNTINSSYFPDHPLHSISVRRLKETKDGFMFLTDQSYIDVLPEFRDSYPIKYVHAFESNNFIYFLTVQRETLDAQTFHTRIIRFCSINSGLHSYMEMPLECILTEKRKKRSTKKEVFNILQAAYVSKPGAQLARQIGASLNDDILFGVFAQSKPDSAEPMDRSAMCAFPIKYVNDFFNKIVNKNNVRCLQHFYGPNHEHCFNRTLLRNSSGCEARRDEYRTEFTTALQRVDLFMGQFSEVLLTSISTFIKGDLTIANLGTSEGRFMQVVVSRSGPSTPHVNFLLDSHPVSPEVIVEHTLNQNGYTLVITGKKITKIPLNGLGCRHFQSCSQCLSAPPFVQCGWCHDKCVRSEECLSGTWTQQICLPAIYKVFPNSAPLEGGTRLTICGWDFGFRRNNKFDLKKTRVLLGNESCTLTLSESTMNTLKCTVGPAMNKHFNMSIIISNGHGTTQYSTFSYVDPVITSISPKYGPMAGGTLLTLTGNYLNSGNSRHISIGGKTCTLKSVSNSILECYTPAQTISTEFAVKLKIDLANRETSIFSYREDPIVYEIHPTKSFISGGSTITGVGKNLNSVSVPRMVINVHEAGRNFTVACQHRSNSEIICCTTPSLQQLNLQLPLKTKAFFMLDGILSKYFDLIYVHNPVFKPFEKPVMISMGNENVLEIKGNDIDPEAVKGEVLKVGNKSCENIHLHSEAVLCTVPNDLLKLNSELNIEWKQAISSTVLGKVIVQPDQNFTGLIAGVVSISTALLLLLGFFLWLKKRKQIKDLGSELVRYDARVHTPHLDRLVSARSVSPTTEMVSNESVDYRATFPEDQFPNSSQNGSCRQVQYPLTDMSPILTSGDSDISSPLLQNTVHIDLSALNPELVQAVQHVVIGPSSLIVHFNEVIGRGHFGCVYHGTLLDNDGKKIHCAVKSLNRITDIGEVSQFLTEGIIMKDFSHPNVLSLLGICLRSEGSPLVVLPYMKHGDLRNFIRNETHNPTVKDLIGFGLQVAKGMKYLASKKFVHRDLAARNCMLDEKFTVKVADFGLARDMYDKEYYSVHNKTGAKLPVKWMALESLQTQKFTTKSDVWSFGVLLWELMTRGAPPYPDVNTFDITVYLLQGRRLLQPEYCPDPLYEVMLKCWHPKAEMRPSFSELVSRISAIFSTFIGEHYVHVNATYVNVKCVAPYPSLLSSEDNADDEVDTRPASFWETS
# Method: PC-3 prostate cancer cells (ATCC #CRL-1435) were seeded at 4×10^4 cells/well onto 24-well plates (Greiner #662165), in DMEM (Thermo Fisher #11995-040) containing 10% FBS (Thermo Fisher #26140-079), 1% MEM NEAA (Thermo Fisher #11140-050), 1% GlutaMax (Thermo Fisher #35050-061), and 1% Penicillin Streptomycin (Thermo Fisher #15140-122). PC-3 cells were incubated at 37° C., 5% CO2 for 24 h and then starved for 3 h in serum-free medium. Test compounds were serially diluted to produce an 8-point dose curve in fresh serum-free medium to a final concentration of 0.3% DMSO (vehicle) and added to the cells and incubated for 1 h. Cells were then stimulated with 100 ng/mL recombinant human HGF (R&D Systems #294-HG-250) for 10 min, washed with cold PBS and immediately lysed with 130 μL of cold 1× lysis buffer [20 mM Tris, 137 mM sodium chloride, 2 mM EDTA, 10% glycerol, 1% NP-40 alternative, 1 mM activated sodium orthovanadate, 1 mM PefaBloc SC (Sigma-Aldrich #11429868001), protease/phosphatase inhibitor tablet (Thermo Fisher #A32959)]. Lysates were clarified by centrifugation and 100 μL/well added into the PathScan phospho-Met (panTyr) Sandwich ELISA (Cell Signaling Technology #7333). Assay was performed according to manufacturer's instructions. Positive control wells (100% activity) contained HGF-stimulated, DMSO-treated cell lysates. Negative control wells (0% activity) contained HGF-stimulated, reference inhibitor-treated cell lysates. IC50 values were calculated by nonlinear regression analysis using a 4-parameter logistic curve fit in ActivityBase XE (IDBS).
# [3] = biological target: KDR (Homo sapiens (Human), UniProt P35968); test: KDR autophosphorylation ELISA in HUVEC cells; details: cellular, VEGF165 stimulated
# KDR, sequence (P35968 20-1356): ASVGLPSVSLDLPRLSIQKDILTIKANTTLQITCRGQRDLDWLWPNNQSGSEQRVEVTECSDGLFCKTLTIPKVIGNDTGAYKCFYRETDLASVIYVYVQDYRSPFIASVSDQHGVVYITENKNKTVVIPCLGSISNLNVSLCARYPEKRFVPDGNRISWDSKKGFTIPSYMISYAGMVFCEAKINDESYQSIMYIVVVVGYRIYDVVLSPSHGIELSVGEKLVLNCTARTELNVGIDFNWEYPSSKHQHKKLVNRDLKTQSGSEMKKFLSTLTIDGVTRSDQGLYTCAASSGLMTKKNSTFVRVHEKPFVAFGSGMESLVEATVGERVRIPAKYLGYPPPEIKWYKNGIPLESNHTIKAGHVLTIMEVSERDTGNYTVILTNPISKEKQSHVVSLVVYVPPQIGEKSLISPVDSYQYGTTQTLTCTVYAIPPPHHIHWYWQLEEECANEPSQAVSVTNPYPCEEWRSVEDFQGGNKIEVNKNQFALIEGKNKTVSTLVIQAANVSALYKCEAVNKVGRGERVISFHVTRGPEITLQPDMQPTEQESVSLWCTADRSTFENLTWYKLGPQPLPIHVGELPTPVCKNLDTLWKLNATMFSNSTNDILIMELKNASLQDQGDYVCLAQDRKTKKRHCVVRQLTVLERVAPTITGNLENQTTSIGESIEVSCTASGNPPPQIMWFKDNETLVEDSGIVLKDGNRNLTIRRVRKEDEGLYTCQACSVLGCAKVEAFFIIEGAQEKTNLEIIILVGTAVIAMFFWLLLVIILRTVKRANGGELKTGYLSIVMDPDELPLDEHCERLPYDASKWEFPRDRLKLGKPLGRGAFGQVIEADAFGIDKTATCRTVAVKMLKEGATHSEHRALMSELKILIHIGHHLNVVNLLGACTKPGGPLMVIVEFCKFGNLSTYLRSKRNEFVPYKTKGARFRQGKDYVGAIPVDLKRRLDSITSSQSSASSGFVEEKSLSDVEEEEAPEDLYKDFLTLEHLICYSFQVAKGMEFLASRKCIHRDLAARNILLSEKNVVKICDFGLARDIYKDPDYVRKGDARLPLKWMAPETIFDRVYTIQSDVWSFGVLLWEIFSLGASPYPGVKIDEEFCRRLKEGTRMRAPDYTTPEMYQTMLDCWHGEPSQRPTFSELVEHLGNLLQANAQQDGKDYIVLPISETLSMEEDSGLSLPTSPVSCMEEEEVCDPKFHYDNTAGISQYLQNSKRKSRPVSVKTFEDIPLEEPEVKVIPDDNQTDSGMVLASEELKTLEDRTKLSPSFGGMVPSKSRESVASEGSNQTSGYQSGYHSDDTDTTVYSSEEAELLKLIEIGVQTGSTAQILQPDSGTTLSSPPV
# Method: Human umbilical vein endothelial cells or HUVEC (Lonza #C2519A) were seeded at 2×10^4 cells/well onto 96-well plates (Corning #3904), in EGM-2 growth medium (Lonza #CC-3162) containing 1% Penicillin Streptomycin (Thermo Fisher #15140-122). HUVEC cells were incubated at 37° C., 5% CO2 for 24 h and then starved for 24 h in serum-free EBM-2 basal medium (Lonza #CC-3156) containing 1% Penicillin Streptomycin. Test compounds were serially diluted to produce an 8-point dose curve in fresh serum-free medium to a final concentration of 0.3% DMSO (vehicle) and added to the cells and incubated for 1 h. Cells were then stimulated with 100 ng/mL recombinant human VEGF165 (R&D Systems #293-VE-500) for 5 min, washed with cold PBS, and immediately lysed with 130 μL of cold 1× lysis buffer [20 mM Tris, 137 mM sodium chloride, 2 mM EDTA, 10% glycerol, 1% NP-40 alternative, 1 mM activated sodium orthovanadate, 1 mM PefaBloc SC (Sigma-Aldrich #11429868001), protease/phosphatase inhibitor tablet (Thermo Fisher #A32959)]. Lysates were collected and 100 μL/well added into the human phospho-KDR DuoSet IC ELISA (R&D Systems #DYC1766-2). Assay was performed according to manufacturer's instructions and sample phospho-KDR concentrations were extrapolated using human phospho-KDR control (R&D Systems #841421) as a standard. Positive control wells (100% activity) contained VEGF165-stimulated, DMSO-treated cell lysates. Negative control wells (0% activity) contained non-stimulated cell lysates. IC50 values were calculated by nonlinear regression analysis using a 4-parameter logistic curve fit in ActivityBase XE (IDBS).
# AXL, sequence (P30530 26-894): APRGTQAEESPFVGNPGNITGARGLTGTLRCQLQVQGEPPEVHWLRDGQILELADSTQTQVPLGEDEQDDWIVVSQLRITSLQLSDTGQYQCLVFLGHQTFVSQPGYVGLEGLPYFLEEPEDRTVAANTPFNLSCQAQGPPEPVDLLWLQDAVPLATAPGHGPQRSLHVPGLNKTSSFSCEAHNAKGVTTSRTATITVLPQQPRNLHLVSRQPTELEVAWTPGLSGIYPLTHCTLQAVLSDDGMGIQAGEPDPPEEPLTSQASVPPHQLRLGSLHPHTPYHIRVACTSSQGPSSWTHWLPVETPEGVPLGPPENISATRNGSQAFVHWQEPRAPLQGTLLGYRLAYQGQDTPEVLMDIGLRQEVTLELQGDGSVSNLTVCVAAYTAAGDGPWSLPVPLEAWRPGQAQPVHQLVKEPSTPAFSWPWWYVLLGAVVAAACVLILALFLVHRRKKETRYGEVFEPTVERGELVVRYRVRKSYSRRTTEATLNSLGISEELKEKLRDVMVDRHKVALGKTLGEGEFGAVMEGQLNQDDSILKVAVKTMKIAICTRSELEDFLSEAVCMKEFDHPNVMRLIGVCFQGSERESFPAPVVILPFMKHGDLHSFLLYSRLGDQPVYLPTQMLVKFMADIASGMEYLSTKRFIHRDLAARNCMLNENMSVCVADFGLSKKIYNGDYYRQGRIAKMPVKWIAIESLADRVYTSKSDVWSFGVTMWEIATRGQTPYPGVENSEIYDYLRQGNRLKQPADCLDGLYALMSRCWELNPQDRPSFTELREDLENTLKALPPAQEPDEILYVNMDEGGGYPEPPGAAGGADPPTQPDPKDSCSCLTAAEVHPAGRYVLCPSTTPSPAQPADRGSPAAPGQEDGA
SMILES,IC50 [1] [nM],IC50 [2] [nM],IC50 [3] [nM]
"CO/N=C(\C)c1cc2c(Oc3ccc(NC(=O)C4(C(=O)Nc5ccc(F)cc5)CC4)cc3)ccnc2cc1OC [Compound 35, 1-N′-(4-fluorophenyl)-1-N-[4-[7-methoxy-6-[(E)-N-methoxy-C-methylcarbonimidoyl]quinolin-4-yl]oxyphenyl]cyclopropane-1,1-dicarboxamide]",100 to 300,100 to 300,100 to 300
"CO/N=C(/C)c1cc2c(Oc3ccc(NC(=O)C4(C(=O)Nc5ccc(F)cc5)CC4)cc3)ccnc2cc1OC [Compound 36, 1-N′-(4-fluorophenyl)-1-N-[4-[7-methoxy-6-[(Z)-N-methoxy-C-methylcarbonimidoyl]quinolin-4-yl]oxyphenyl]cyclopropane-1,1-dicarboxamide]",100 to 300,100 to 300,> 300
"COCCNc1cc2nccc(Oc3ccc(NC(=O)C4(C(=O)Nc5ccc(F)cc5)CC4)cc3)c2cc1C(N)=O [Compound 70, 1-N-[4-[6-Carbamoyl-7-(2-methoxyethylamino)quinolin-4-yl]oxyphenyl]-1-N′-(4-fluorophenyl)cyclopropane-1,1-dicarboxamide]",10 to 100,10 to 100,10 to 100
"NC(=O)c1cc2c(Oc3ccc(NC(=O)C4(C(=O)Nc5ccc(F)cc5)CC4)cc3)ccnc2cc1N [Compound 87, 1-N-[4-(7-Amino-6-carbamoylquinolin-4-yl)oxyphenyl]-1-N′-(4-fluorophenyl)cyclopropane-1,1-dicarboxamide]",100 to 300,100 to 300,> 300
"CC1NC(=O)c2cc3c(Oc4ccc(NC(=O)C5(C(=O)Nc6ccc(F)cc6)CC5)cc4)ccnc3cc2O1 (stereo not drawn) [Compound 92, 1-N′-(4-Fluorophenyl)-1-N-[4-[(2-methyl-4-oxo-2,3-dihydropyrido[3,2-g][1,3]benzoxazin-6-yl)oxy]phenyl]cyclopropane-1,1-dicarboxamide]",10 to 100,100 to 300,100 to 300
"NC(=O)c1cc2c(Oc3ccc(NC(=O)C4(C(=O)Nc5ccc(F)cc5)CC4)cc3)ccnc2cc1OCCO [Compound 106, 1-N-[4-[6-Carbamoyl-7-(2-hydroxyethoxy)quinolin-4-yl]oxyphenyl]-1-N′-(4-fluorophenyl)cyclopropane-1,1-dicarboxamide]",≤ 10,10 to 100,≤ 10
"O=C(NOCCO)c1ccc2c(Oc3ccc(NC(=O)C4(C(=O)Nc5ccc(F)cc5)CC4)cc3)ccnc2c1 [Compound 166, 1-N′-(4-Fluorophenyl)-1-N-[4-[7-(2-hydroxyethoxycarbamoyl)-quinolin-4-yl]oxyphenyl]cyclopropane-1,1-dicarboxamide]",10 to 100,10 to 100,100 to 300
"O=C(NOC1COC1)c1ccc2c(Oc3ccc(NC(=O)C4(C(=O)Nc5ccc(F)cc5)CC4)cc3)ccnc2c1 [Compound 167, 1-N′-(4-Fluorophenyl)-1-N-[4-[7-(oxetan-3-yloxycarbamoyl)quinolin-4-yl]oxyphenyl]cyclopropane-1,1-dicarboxamide]",100 to 300,100 to 300,100 to 300
"O=C(NOC[C@@H](O)CO)c1ccc2c(Oc3ccc(NC(=O)C4(C(=O)Nc5ccc(F)cc5)CC4)cc3)ccnc2c1 [Compound 170, 1-N-[4-[7-[[(2S)-2,3-Dihydroxypropoxy]carbamoyl]quinolin-4-yl]oxyphenyl]-1-N′-(4-fluorophenyl)cyclopropane-1,1-dicarboxamide]",100 to 300,> 300,100 to 300
"COc1cc2nccc(Oc3ccc(NC(=O)C4(C(=O)Nc5ccc(F)cc5)CC4)cc3)c2cc1-c1cn(C)cn1 [Compound 177, 1-N′-(4-Fluorophenyl)-1-N-[4-[7-methoxy-6-(1-methylimidazol-4-yl)quinolin-4-yl]oxyphenyl]cyclopropane-1,1-dicarboxamide]",≤ 10,10 to 100,≤ 10

# Other lines, results leading:
IC50 [1] [nM],IC50 [2] [nM],IC50 [3] [nM],SMILES
> 300,> 300,> 300,"CNc1cc2nccc(Oc3ccc(NC(=O)C4(C(=O)Nc5ccc(F)cc5)CC4)cc3)c2cc1C(=O)O [Compound 81, 4-[4-[[1-[(4-Fluorophenyl)carbamoyl]cyclopropane-carbonyl]amino]phenoxy]-7-(methylamino)quinoline-6-carboxylic Acid]"
10 to 100,10 to 100,10 to 100,"CNc1cc2nccc(Oc3ccc(NC(=O)C4(C(=O)Nc5ccc(F)cc5)CC4)cc3)c2cc1C(N)=O [Compound 82, 1-N-[4-[6-Carbamoyl-7-(methylamino)quinolin-4-yl]oxyphenyl]-1-N′-(4-fluorophenyl)cyclopropane-1,1-dicarboxamide]"
10 to 100,10 to 100,10 to 100,"CNC(=O)c1cc2c(Oc3ccc(NC(=O)C4(C(=O)Nc5ccc(F)cc5)CC4)cc3)ccnc2cc1NC [Compound 83, 1-N′-(4-Fluorophenyl)-1-N-[4-[7-(methylamino)-6-(methylcarbamoyl)quinolin-4-yl]oxyphenyl]cyclopropane-1,1-dicarboxamide]"
≤ 10,10 to 100,≤ 10,"CNc1cc2nccc(Oc3ccc(NC(=O)C4(C(=O)Nc5ccc(F)cc5)CC4)cc3)c2cc1C(=O)OC [Compound 84, Methyl 4-[4-[[1-[(4-fluorophenyl)carbamoyl]cyclopropane-carbonyl]amino]phenoxy]-7-(methylamino)quinoline-6-carboxylate]"
100 to 300,100 to 300,> 300,"CNC(=O)c1cc2c(Oc3ccc(NC(=O)C4(C(=O)Nc5ccc(F)cc5)CC4)cc3)ccnc2cc1N [Compound 88, 1-N-[4-[7-Amino-6-(methylcarbamoyl)quinolin-4-yl]oxyphenyl]-1-N′-(4-fluorophenyl)cyclopropane-1,1-dicarboxamide]"
> 300,> 300,> 300,"Nc1cc2nccc(Oc3ccc(NC(=O)C4(C(=O)Nc5ccc(F)cc5)CC4)cc3)c2cc1C(=O)O [Compound 89, 7-Amino-4-[4-[[1-[(4-fluorophenyl)carbamoyl]cyclopropane-carbonyl]amino]phenoxy]quinoline-6-carboxylic Acid]"
10 to 100,10 to 100,10 to 100,"COC(=O)c1cc2c(Oc3ccc(NC(=O)C4(C(=O)Nc5ccc(F)cc5)CC4)cc3)ccnc2cc1N [Compound 90, Methyl 7-amino-4-[4-[[1-[(4-fluorophenyl)carbamoyl]-cyclopropanecarbonyl]amino]phenoxy]quinoline-6-carboxylate]"
